Measured values: paper PMC4545913, “Dual EZH2 and EHMT2 histone methyltransferase inhibition increases biological efficacy in breast cancer cells” (Clinical Epigenetics, 2015)

What was measured:
[1] = system: EZH2; test: qRT-PCR of EZH2 mRNA in MDA-MB-231 cells; type: cell-based; conditions: Homo sapiens, 48 h, normalised against GAPDH, read-out: EZH2 RNA level, fold increase compared to the mock treated sample; for fold induction at 10 µM: MDA-MB-231, single dose 10 μM
Experimental: (§1) Following compound treatment of MDA-MB-231 for 48 h (in 6-well plates), media was removed and 1.5 ml of TRIzol (Invitrogen) was added directly to lyse cells and RNA was isolated according to the manufacturer’s instructions. Reverse transcription was done using the SuperScript III First-Strand Synthesis System (Invitrogen) according to the manufacturer’s instructions. Each measurement was done in triplicate, and the List of Primers can be found in Additional file 2: Table S1. For normalisation, we have used GAPDH and RNA pol II. Experiments were also done with the ‘Fast Sybr Green Cell-to-CT™-Kit’ according to the manufacturer’s instructions (Applied Biosystem). Fifteen thousand cells per 96 well were plated, and after 24 h, treated with compounds at various concentrations.
(§2) For qRT-PCR measurements the 2x iQ SYBR Green Supermix (Bio-Rad), 200nM Primers and 0.4μl of cDNA /per 20μl reaction was used. The measurement was done in low-white 96-well plates (Bio-Rad) on a CFX96 Real-time System/C1000 Thermal Cycler (Bio-Rad) with the following protocol: 95°C for 3’; 95°C for 10’’, 56°C for 10’’, 72°C for 30’’ 42 cycles followed by a melting curve from 72°C to 95°C.

[2] = system: FBXO32; test: qRT-PCR of FBXO32 mRNA in MDA-MB-231 cells; type: cell-based; conditions: for fold induction at 10 µM: MDA-MB-231, single dose 10 μM; for Change in FBXO32 mRNA level: MDA-MB-231, 48 h, single agents 1–15 μM, combination UNC0638 at 7.5 μM with increasing doses of GSK343
Experimental: as §1, §2

[3] = system: MDA-MB-231 cells; test: MTT cell viability assay; type: cell-based; conditions: for IC50: Homo sapiens
Experimental: Fig. 1 MTT and mRNA levels in MDA-MB-231 cells after pharmacological inhibition and siRNA knockdown of EZH2 and EHMT2(G9a), individually and in combination. a Expression levels of KRT17, FBX032, JMJD3, EZH2, SPINK1 and EHMT2 were measured by qRT-PCR in the MDA-MB-231 cell line 48 h after transfection with siRNAs targeting EZH2 and EHMT2, both individually and in combination. All measurements were normalised to the fold-change (relative to GAPDH) in the mock transfection control. Error bars represent the mean ± SD of experiment performed in technical triplicate. b Expression levels of KRT17, FBX032, JMJD3 and SPINK1 were measured by qRT-PCR in the MDA-MB-231 cell line treated for 48 h with GSK343, UNC0638, and UNC0638 (at 7.5 μM) with increasing doses of GSK343. Each group has been compared to the untreated sample following normalisation to GAPDH. Error bars represent the mean ± SD of experiment performed in technical triplicate. c MTT assay for cell viability of MDA-MB-231 cells after treatment. MDA-MB-231 cells were seeded in 96 well plates. After 24 h, increasing doses of GSK343, UNC0638 or combination treatments (1, 2.5, 5, 7.5, 10 and 15 μM) were added to cells. Control was media with 0.5 % DMSO. Cell viability was measured by MTT assay after a 48-h treatment and a 24-h proliferation period. Error bars represent the mean ± SEM of five independent repeats
(§3) For clonogenic assays, cells were treated with compound for 48 h, media were removed and replaced with fresh media for a further 12 days to measure colony formation. For cell viability assays, lymphoma cells were plated at 20,000 cells in 200 μl per well in U-bottom 96 well plates in RPMI medium +20 % FCS. Cells were re-suspended 48 h later, diluted 10-fold in PBS + propidium iodide (PI) and the concentration of PI negative cells was counted using an Attune flow cytometer with autosampler. Breast cancer cells were seeded at a density of 10,000 cells/well in a sterile 96 clear-well plate with 150 μl of DMEM (+10 % FCS and 2 mM L-Glutamine). Each compound treatment was performed in triplicate for 72 h at concentrations of 100 nM and 1, 5, 10 and 50 μM in 100 μl of full-medium. After 72 h, 20 μl of MTT solution (3 mg of MTT Formazan, Sigma/1 ml PBS) was added to the medium and incubated for 4 h at 37 °C in a CO2 incubator. The MTT-product was solubilised with 100 μl DMSO, and for 1 h, incubated in the dark at room temperature. The optical density was read at 570 nm with PHERAstar.

[4] = system: MDA-MB-231 cells; test: Clonogenic growth assay; type: cell-based; conditions: Homo sapiens; MDA-MB-231, 48 h treatment then 12 days in fresh media
Experimental: as §3

[5] = system: JMJD3; test: qRT-PCR of JMJD3 mRNA in MDA-MB-231 cells; type: cell-based; conditions: for fold induction at 10 µM: MDA-MB-231, single dose 10 μM; for Change in JMJD3 mRNA level: MDA-MB-231, 48 h, single agents 1–15 μM, combination UNC0638 at 7.5 μM with increasing doses of GSK343
Experimental: as §1, §2

[6] = system: KRT17; test: qRT-PCR of KRT17 mRNA in MDA-MB-231 cells; type: cell-based; conditions: for fold induction at 10 µM: MDA-MB-231, single dose 10 μM; for Change in KRT17 mRNA level: MDA-MB-231, 48 h, single agents 1–15 μM, combination UNC0638 at 7.5 μM with increasing doses of GSK343
Experimental: as §1, §2

[7] = system: SPINK1; test: qRT-PCR of SPINK1 mRNA in MDA-MB-231 cells; type: cell-based; conditions: for Change in SPINK1 mRNA level: MDA-MB-231, 48 h, single agents 1–15 μM, combination UNC0638 at 7.5 μM with increasing doses of GSK343; for SPINK1 expression upon treatment: MDA-MB-231, multiple doses and time points
Experimental: as §1, §2

[8] = system: DB; test: Lymphoma cell growth, cell counting following propidium iodide staining; type: cell-based; conditions: Homo sapiens, EZH2 Mutant Y646N, 48 h, PI negative cell count
Experimental: as §3

[9] = system: SUDLH8; test: as above; type: cell-based; conditions: EZH2 W.T. (amplified), 48 h, PI negative cell count
Experimental: as §3

[10] = system: SC1; test: as above; type: cell-based; conditions: Homo sapiens, SC-1, EZH2 W.T., 48 h, PI negative cell count
Experimental: as §3

[11] = system: WILL1; test: as above; type: cell-based; conditions: WILL-1, EZH2 W.T., 48 h, PI negative cell count
Experimental: as §3

[12] = system: DOHH2; test: as above; type: cell-based; conditions: Homo sapiens, DOHH-2, EZH2 W.T., 48 h, PI negative cell count
Experimental: as §3

[13] = system: WSU-FSCLL; test: as above; type: cell-based; conditions: EZH2 W.T., 48 h, PI negative cell count
Experimental: as §3

[14] = system: H3K27me3 and H3K9me3; test: Western analysis of global histone marks in MDA-MB-231 cells; type: cell-based; conditions: range of doses
Experimental: MDA-MB-231 cells seeded in 6 well plates at a cell density of 3 x 10^5 were treated with HKMTI-1-005 (1–7.5uM) for 48 h. Following lysis in Triton Extraction Buffer (TEB, PBS containing 0.5 % Triton ×100 (v/v), 1/1000 protease inhibitor), nuclei were re-suspended in 0.2 N HCL at a density of 4 x 10^7 nuclei per millilitre and incubated overnight at 4 °C to acid-extract the histones, before being centrifuged at 6500g for 10 min at 4 °C. Protein concentration was determined using the Bradford assay. H3K27me3, H3K9me3, H3K9me2, H3K9me and total H3 protein expression levels in the histone extract samples were determined using Western blot analysis using H3K27me3 (1:1000; Abcam), H3K9me3 (1:1000; Abcam), H3K9me (1:1000) and H3 (1:2000; Abcam) antibodies. After washing, the membrane was incubated with a horseradish peroxidase-labelled secondary antibody (1 h, room temperature). The membrane was incubated for 1 min with 5 mL of Pierce ECL Western blotting substrate (Thermo Scientific). Images were captured using Konica Minolta SRX101A Tabletop X-Ray film processor.

[15] = biological target: trimeric PRC2 complex (EZH2:EED:SUZ12) (Homo sapiens, UniProt O75530+Q15022+Q15910); test: PRC2 enzymatic assay (SPA-type), biotinylated-H3 (21–44) peptide substrate; type: biochemical; conditions: EZH2:EED:SUZ12, biotinylated-H3 (21–44) peptide substrate
From the text: A trimeric PRC2 complex (EZH2:EED:SUZ12) was employed in this assay, along with a biotinylated-H3 (21–44) peptide substrate. […] Since the peptide substrates used in these assays are poor models for the complex and dynamic structure of the chromatin substrate in cells and since the only minimal number of PRC2 proteins (EZH2:EED:SUZ12) required for enzymatically active EZH2 were employed in the PRC2 assay, care should be taken in the over interpretation of this in vitro inhibitory data.

[16] = system: EZH2; conditions: cited from earlier work
[17] = Homo sapiens, 48 h, normalised against GAPDH, read-out: FBXO32 RNA level, fold increase compared to the mock treated sample
[18] = MDA-MB-231 (Table 2), read-out: Cell viability (MTT) IC50
[19] = Homo sapiens, 48 h, normalised against GAPDH, read-out: JMJD3 RNA level, fold increase compared to the mock treated sample
[20] = Homo sapiens, 48 h, normalised against GAPDH, read-out: KRT17 RNA level, fold increase compared to the mock treated sample

Chain of trimeric PRC2 complex (EZH2:EED:SUZ12) (Q15910 whole entry): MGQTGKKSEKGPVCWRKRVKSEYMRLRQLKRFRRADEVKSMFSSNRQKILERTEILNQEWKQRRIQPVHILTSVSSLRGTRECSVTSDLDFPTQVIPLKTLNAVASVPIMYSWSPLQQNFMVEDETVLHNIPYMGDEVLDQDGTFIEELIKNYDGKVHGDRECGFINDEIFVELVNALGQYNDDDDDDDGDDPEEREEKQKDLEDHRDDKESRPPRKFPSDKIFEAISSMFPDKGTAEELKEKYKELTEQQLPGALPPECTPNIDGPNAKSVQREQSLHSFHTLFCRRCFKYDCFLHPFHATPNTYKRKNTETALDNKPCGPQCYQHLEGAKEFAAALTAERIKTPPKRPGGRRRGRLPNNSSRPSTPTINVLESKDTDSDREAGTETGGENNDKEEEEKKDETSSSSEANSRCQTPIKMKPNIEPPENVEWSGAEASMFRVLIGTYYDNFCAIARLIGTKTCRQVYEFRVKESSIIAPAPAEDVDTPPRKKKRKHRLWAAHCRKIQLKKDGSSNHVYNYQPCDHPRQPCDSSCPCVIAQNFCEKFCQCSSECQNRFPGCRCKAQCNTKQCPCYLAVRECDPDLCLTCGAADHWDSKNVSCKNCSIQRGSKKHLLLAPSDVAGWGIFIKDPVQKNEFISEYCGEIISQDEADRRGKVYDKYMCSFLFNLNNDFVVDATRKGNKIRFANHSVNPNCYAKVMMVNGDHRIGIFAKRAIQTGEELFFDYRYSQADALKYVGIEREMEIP
Chain of trimeric PRC2 complex (EZH2:EED:SUZ12) (O75530 whole entry partner): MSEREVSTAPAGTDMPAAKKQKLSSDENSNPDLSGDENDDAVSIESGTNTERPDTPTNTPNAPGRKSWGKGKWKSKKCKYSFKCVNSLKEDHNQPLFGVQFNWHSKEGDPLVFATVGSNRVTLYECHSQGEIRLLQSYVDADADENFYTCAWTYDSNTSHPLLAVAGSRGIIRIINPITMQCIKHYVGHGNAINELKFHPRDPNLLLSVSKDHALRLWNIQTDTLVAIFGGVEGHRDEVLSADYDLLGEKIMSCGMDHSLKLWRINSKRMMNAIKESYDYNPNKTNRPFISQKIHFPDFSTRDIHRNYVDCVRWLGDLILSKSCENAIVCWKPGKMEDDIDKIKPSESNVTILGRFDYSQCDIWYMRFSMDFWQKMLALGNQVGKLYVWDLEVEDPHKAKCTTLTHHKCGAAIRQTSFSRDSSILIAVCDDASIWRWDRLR
Chain of trimeric PRC2 complex (EZH2:EED:SUZ12) (Q15022 whole entry partner): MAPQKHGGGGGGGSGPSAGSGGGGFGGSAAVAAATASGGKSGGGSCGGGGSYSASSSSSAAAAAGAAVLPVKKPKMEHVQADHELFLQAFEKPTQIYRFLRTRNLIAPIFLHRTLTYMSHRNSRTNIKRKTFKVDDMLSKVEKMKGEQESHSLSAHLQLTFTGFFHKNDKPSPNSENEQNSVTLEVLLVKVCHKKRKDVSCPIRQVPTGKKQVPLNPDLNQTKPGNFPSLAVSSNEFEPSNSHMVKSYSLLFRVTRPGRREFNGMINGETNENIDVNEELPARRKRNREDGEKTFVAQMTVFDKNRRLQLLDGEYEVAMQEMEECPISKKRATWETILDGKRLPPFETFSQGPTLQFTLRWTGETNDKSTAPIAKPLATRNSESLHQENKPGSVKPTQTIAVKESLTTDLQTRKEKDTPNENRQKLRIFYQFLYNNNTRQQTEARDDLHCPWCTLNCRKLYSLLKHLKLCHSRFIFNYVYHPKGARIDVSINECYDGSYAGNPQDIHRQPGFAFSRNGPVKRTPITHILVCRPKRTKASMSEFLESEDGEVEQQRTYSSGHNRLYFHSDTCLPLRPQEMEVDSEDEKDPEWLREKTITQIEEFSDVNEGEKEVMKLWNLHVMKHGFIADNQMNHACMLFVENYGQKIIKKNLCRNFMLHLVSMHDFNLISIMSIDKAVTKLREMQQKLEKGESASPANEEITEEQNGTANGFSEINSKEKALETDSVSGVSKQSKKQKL

COc1cc2nc(N3CCCN(C)CC3)nc(NC3CCN(Cc4ccccc4)CC3)c2cc1OC [BIX01294, reference compound]
fold induction at 10 µM [1]: 0.87 | fold induction at 10 µM [2, 17]: 3.34 | IC50 [3, 18]: 9.6 µM | IC50 [4]: 1.4 µM | fold induction at 10 µM [5, 19]: 2.7 | fold induction at 10 µM [6, 20]: 1.06

CCCc1cc(C)[nH]c(=O)c1CNC(=O)c1cc(-c2ccnc(N3CCN(C)CC3)c2)cc2c1cnn2C(C)C [GSK343, reference compound]
fold induction at 10 µM [1]: 1 | fold induction at 10 µM [2, 17]: 1.2 | Change in FBXO32 mRNA level [2]: little change | IC50 [3, 18]: > 15 µM | Effect on cell viability ([3]; MDA-MB-231, MTT, up to 15 μM, 48-h treatment and 24-h proliferation period): no significant reduction in cell viability | Change in SPINK1 mRNA level [7]: little change | IC50 [8]: < 1 µM | IC50 [9]: 5.11 µM | IC50 [10]: 12.1 µM | IC50 [11]: 17.9 µM | IC50 [12]: 6.15 µM | IC50 [13]: 2.87 µM | IC50 [4]: > 50 µM | fold induction at 10 µM [5, 19]: 1 | Change in JMJD3 mRNA level [5]: little change | Global levels of H3K27me3 and H3K9me3 (Western) [14]: minor decrease | fold induction at 10 µM [6, 20]: 0.9 | Change in KRT17 mRNA level [6]: little change

COc1cc2nc(NCCCN(C)C)nc(NC3CCN(Cc4ccccc4)CC3)c2cc1OC [HKMTI-1-002]
fold induction at 10 µM [1]: 0.86 | fold induction at 10 µM [2, 17]: 1.12 | fold induction at 10 µM [5, 19]: 1.57 | fold induction at 10 µM [6, 20]: 0.66

COc1cc2nc(N3CCN(c4ccccn4)CC3)nc(NC3CCN(Cc4ccccc4)CC3)c2cc1OC [HKMTI-1-011]
SPINK1 expression upon treatment [7]: increased | IC50 [15]: 12 µM

COc1cc2nc(N3CCCC(CO)C3)nc(NC3CCN(C)CC3)c2cc1OC (stereo not drawn) [HKMTI-1-012]
fold induction at 10 µM [1]: 1.38 | fold induction at 10 µM [2, 17]: 1.06 | fold induction at 10 µM [5, 19]: 0.9 | fold induction at 10 µM [6, 20]: 1.32

COc1cc2nc(N3CCCN(C)CC3)nc(NCc3ccccn3)c2cc1OC [HKMTI-1-013]
fold induction at 10 µM [1]: 0.13 | fold induction at 10 µM [2, 17]: 0.93 | fold induction at 10 µM [5, 19]: 0.87 | fold induction at 10 µM [6, 20]: 0.78

COc1cc2nc(N3CCCCC3)nc(NC3CCN(Cc4ccccc4)CC3)c2cc1OC [HKMTI-1-022]
SPINK1 expression upon treatment [7]: increased | IC50 [15]: 16 µM

COc1cc2c(NC3CCN(C(C)C)CC3)nc(C3CCCCC3)nc2cc1OCCCN1CCCC1 [UNC0638, reference compound]
fold induction at 7.5 µM ([1]; MDA-MB-231, single dose 7.5 μM): 0.4 | fold induction at 7.5 µM ([2]; Homo sapiens, 48 h, MDA-MB-231, single dose 7.5 μM, normalised against GAPDH, read-out: FBXO32 RNA level, fold increase compared to the mock treated sample): 5.5 | Change in FBXO32 mRNA level [2]: dose-dependent upregulation | IC50 [3, 18]: 8.2 µM | IC50 ([3]; MDA-MB-231, MTT, 48-h treatment and 24-h proliferation period (Fig. 1c), read-out: Cell viability IC50 (calculated)): 9 µM | Change in SPINK1 mRNA level [7]: not significantly altered | IC50 [4]: 1.1 µM | fold induction at 7.5 µM ([5]; Homo sapiens, 48 h, MDA-MB-231, single dose 7.5 μM, normalised against GAPDH, read-out: JMJD3 RNA level, fold increase compared to the mock treated sample): 3.4 | Change in JMJD3 mRNA level [5]: dose-dependent upregulation | EZH2 inhibition in biochemical assays [16]: not to significantly inhibit EZH2 | Global levels of H3K27me3 and H3K9me3 (Western) [14]: minor decrease | fold induction at 7.5 µM ([6]; Homo sapiens, 48 h, MDA-MB-231, single dose 7.5 μM, normalised against GAPDH, read-out: KRT17 RNA level, fold increase compared to the mock treated sample): 1.1 | Change in KRT17 mRNA level [6]: not significantly altered

COc1cc2c(NC3CCN(C(C)C)CC3)nc(N3CCC(F)(F)CC3)nc2cc1OCCCN1CCCC1 [UNC0642]
EZH2 inhibition in biochemical assays [16]: not to significantly inhibit EZH2
